IC50 data for 36 compounds are collected here from patent publication US12351570B2 (MERCK PATENT GMBH, priority 2018, dated 2025).

This assay has as its system MDA-MB-231 cells. As to the kind of experiment: Extracellular lactate production inhibition after 4 h, MDA-MB-231. The settings on record: Homo sapiens, MDA-MB-231.
`O=CN(Cc1cnc2ccccc2c1)c1ccccc1C#Cc1ccc(C(=O)O)nc1` [Compound 196, 5-[2-(2-{N-[(quinolin-3-yl)methyl]formamido}phenyl)ethynyl]-pyridine-2-carboxylic acid]: the half-maximal inhibitory concentration (IC50) (as a rule, the midpoint of a concentration-inhibition curve) fell in the range of 1000 to 100000 nM.

`COc1ccc(S(=O)(=O)Nc2ccc(Cl)cc2C#Cc2ccc(C(=O)O)nc2)c2ncccc12` [Compound 359, 5-{2-[5-chloro-2-(5-methoxyquinoline-8-sulfonamido)phenyl]ethynyl}pyridine-2-carboxylic acid] gave an IC50 of 1 to 10 nM.

As for `O=C(O)c1ccc(C#Cc2ccccc2NS(=O)(=O)c2ccccc2-c2ccccc2)cn1` [Compound 141, 5-[2-(2-{[1,1′-biphenyl]-2-sulfonamido}phenyl)ethynyl]pyridine-2-carboxylic acid], the IC50 lay in the range of 100 to 1000 nM.

As for `NCCOCCOCCOc1ccc(C#Cc2ccc(C(=O)O)nc2)c(NS(=O)(=O)c2cccc3cccnc23)c1` [Compound 332, 5-[4-{2-[2-(2-Amino-ethoxy)-ethoxy]-ethoxy}-2-(quinoline-8-sulfonylamino)-phenylethynyl]-pyridine-2-carboxylic acid], the IC50 lay within 1000 to 100000 nM.

`CC(C)Nc1ccnc2c(S(=O)(=O)Nc3ccccc3C#Cc3ccc(C(=O)O)nc3)cccc12` [Compound 427, 5-[2-(4-Isopropylamino-quinoline-8-sulfonylamino)-phenylethynyl]-pyridine-2-carboxylic acid] returned an IC50 of 1000 to 100000 nM.

The compound `COc1ccc(S(=O)(=O)Nc2ccccc2C#Cc2cnc(C(=O)O)c3ccccc23)c(C)c1C` [Compound 395, 4-[2-(4-Methoxy-2,3-dimethyl-benzenesulfonylamino)-phenylethynyl]-isoquinoline-1-carboxylic acid] yielded an IC50 of 100 to 1000 nM.

`NC(=O)N(Cc1ccc2ccccc2c1)c1ccccc1C#Cc1ccc(C(=O)O)nc1` [Compound 147, 5-[2-(2-{carbamoyl[(naphthalen-2-yl)methyl]amino}phenyl)ethynyl]pyridine-2-carboxylic acid] showed an IC50 of 100 to 1000 nM.

Turning to `O=C(O)c1ncc(C#Cc2ccccc2NS(=O)(=O)c2cccc3c(Cl)ccnc23)cc1Cl` [Compound 323, 3-chloro-5-{2-[2-(4-chloroquinoline-8-sulfonamido)phenyl]ethynyl}pyridine-2-carboxylic acid], the 50% inhibitory concentration (IC50) lay within 1000 to 100000 nM.

`Cc1nc(C(=O)O)ccc1C#Cc1ccccc1NS(=O)(=O)c1ccc2ccccc2c1` [Compound 51, 6-methyl-5-{2-[2-(naphthalene-2-sulfonamido)phenyl]ethynyl}pyridine-2-carboxylic acid] displayed an IC50 of 1000 to 100000 nM.

In turn, `COc1cc(C(=O)O)ncc1C#Cc1ccccc1NS(=O)(=O)N1CCC2CCCCC21` (stereo not drawn) [Compound 219, 4-methoxy-5-(2-{2-[(octahydro-1H-indole-1-sulfonyl)amino]phenyl}ethynyl)pyridine-2-carboxylic acid] displayed a 50% inhibitory concentration (IC50) of 100 to 1000 nM.

In turn, `COc1ccc(S(=O)(=O)Nc2ccccc2C#Cc2cnc3c(c2)CN(C)C3=O)c2ncccc12` [Compound 245, 5-methoxy-N-[2-(2-{6-methyl-7-oxo-5H,6H,7H-pyrrolo[3,4-b]pyridin-3-yl}ethynyl)phenyl]quinoline-8-sulfonamide] returned an IC50 of 1000 to 100000 nM.

As to `COc1ccc(S(=O)(=O)Nc2ccccc2C#Cc2ccc(C(=O)O)nc2)c(Cl)c1` [Compound 287, 5-{2-[2-(2-chloro-4-methoxybenzene-sulfonamido)phenyl]ethynyl}pyridine-2-carboxylic acid], the IC50 lay in the range of 1000 to 100000 nM.

The compound `O=C(O)c1ccc(C#Cc2ccccc2NS(=O)(=O)c2c(Cl)ccc3c(Cl)ccnc23)cn1` [Compound 302, 5-{2-[2-(4,7-dichloroquinoline-8-sulfonamido)phenyl]ethynyl}pyridine-2-carboxylic acid] returned an IC50 of 10 to 100 nM.

As for `COc1cccc(S(C)(=O)=Nc2ccccc2C#Cc2ccc(C(=O)O)nc2)c1` (stereo not drawn) [Compound 434, 5-[2-(2-{[(3-methoxyphenyl)(methyl)oxo-λ6-sulfanylidene]amino}phenyl)ethynyl] pyridine-2-carboxylic acid], the IC50 lay within 100 to 1000 nM.

`O=C(O)c1ccc(C#Cc2ccccc2NS(=O)(=O)c2cccc3c(N4CCOCC4)ccnc23)cn1` [Compound 422, 5-[2-(4-Morpholin-4-yl-quinoline-8-sulfonylamino)-phenylethynyl]-pyridine-2-carboxylic acid] came in with an IC50 of 1000 to 100000 nM.

`O=C(O)c1ccc(C#Cc2ccccc2NS(=O)(=O)c2cccc3cc(Cl)cnc23)cc1` [Compound 270, 4-[2-(3-Chloro-quinoline-8-sulfonyl-amino)-phenylethynyl]-benzoic acid] gave an IC50 of 100 to 1000 nM.

Turning to `Cc1nc(C(=O)O)ccc1C#Cc1ccccc1NS(=O)(=O)c1cccc2cccnc12` [Compound 60, 6-methyl-5-{2-[2-(quinoline-8-sulfonamido)phenyl]ethynyl}pyridine-2-carboxylic acid], the IC50 was 1000 to 100000 nM.

In turn, `Cc1ccc2cccnc2c1S(=O)(=O)Nc1cc(Cl)c(Cl)cc1C#Cc1ccc(C(=O)O)nc1` [Compound 204, 5-{2-[4,5-dichloro-2-(7-methylquinoline-8-sulfonamido)phenyl]ethynyl}pyridine-2-carboxylic acid] registered an IC50 of 10 to 100 nM.

As for `COc1ccc(S(=O)(=O)Nc2ccccc2C#Cc2ccc(C(=O)NC#N)cc2)c2ccccc12` [Compound 253, N-cyano-4-{2-[2-(4-methoxy-naphthalene-1-sulfonamido)phenyl]-ethynyl}benzamide], the IC50 lay within 1000 to 100000 nM.

In the case of `O=C(O)c1ccc(C#Cc2ccccc2NS(=O)(=O)c2csc3ccccc23)cc1` [Compound 83], the IC50 was 100 to 1000 nM.

For `COc1ccc(S(=O)(=O)Nc2ccc(Cl)cc2C#Cc2ccc(C(=O)O)nc2)cc1` [Compound 390, 5-[5-Chloro-2-(4-methoxy-benzenesulfonylamino)-phenylethynyl]-pyridine-2-carboxylic acid], the IC50 was 100 to 1000 nM.

Compound `COc1cc(C(=O)O)ncc1C#Cc1ccccc1NS(=O)(=O)c1c(C)ccc2cccnc12` [Compound 164, 4-methoxy-5-{2-[2-(7-methylquinoline-8-sulfonamido)phenyl]ethynyl}pyridine-2-carboxylic acid] gave an IC50 of 1 to 10 nM.

Compound `O=C(O)c1ccc(C#Cc2ccccc2NS(=O)(=O)c2ccc(-c3ccccc3)cc2)cc1` [Compound 153, 4-[2-(2-{[1,1′-biphenyl]-4-sulfonamido}phenyl)ethynyl]benzoic acid] came in with a half-maximal inhibitory concentration (IC50) of 100 to 1000 nM.

The compound `Cc1ccc(NS(=O)(=O)c2c(C)ccc3cccnc23)c(C#Cc2ccc(C(=O)O)nc2)c1` [Compound 393, 5-[5-Methyl-2-(7-methyl-quinoline-8-sulfonylamino)-phenylethynyl]-pyridine-2-carboxylic acid] came in with an IC50 of 1 to 10 nM.

The compound `COCC(=O)Nc1ccc(C#Cc2ccc(C(=O)O)nc2)c(NS(=O)(=O)c2ccc(OC)c3cccnc23)c1` [Compound 173, 5-{2-[4-(2-methoxyacetamido)-2-(5-methoxyquinoline-8-sulfonamido)phenyl]ethynyl}pyridine-2-carboxylic acid] yielded a half-inhibitory concentration (IC50) of 1000 to 100000 nM.

With `CCCCOC(=O)c1ccc(C#Cc2ccccc2NS(=O)(=O)c2ccc(OC)c3cccnc23)cn1` [Compound 168, butyl 5-{2-[2-(5-methoxyquinoline-8-sulfonamido)phenyl]ethynyl}pyridine-2-carboxylate], the IC50 lay within 10 to 100 nM.

On to `Cc1c(S(=O)(=O)Nc2ccccc2C#Cc2ccc(C(=O)O)cc2)sc2ccc(Cl)cc12` [Compound 22, 4-{2-[2-(5-chloro-3-methyl-1-benzothiophene-2-sulfonamido)phenyl]ethynyl}benzoic acid], for which the IC50 lay in the range of 100 to 1000 nM.

Consider `COC(=O)c1ccc(C#Cc2ccccc2N(Cc2ccc3ccccc3c2)C(N)=O)cn1` [Compound 140, methyl 5-[2-(2-{carbamoyl[(naphthalen-2-yl)methyl]amino}phenyl)ethynyl]pyridine-2-carboxylate], for which the IC50 was in the range of 100 to 1000 nM.

In turn, `COc1ccc(S(=O)(=O)Nc2ccccc2C#Cc2ccc(C(=O)O)cc2)cc1OC` [Compound 263, 4-[2-(3,4-Dimethoxy-benzenesulfonyl-amino)-phenylethynyl]-benzoic acid] showed an IC50 of 1000 to 100000 nM.

`COc1ccc(S(=O)(=O)Nc2ccc(I)cc2C#Cc2ccc(C(=O)O)nc2)c2ncccc12` [Compound 214, 5-{2-[5-iodo-2-(5-methoxyquinoline-8-sulfonamido)phenyl]ethynyl}pyridine-2-carboxylic acid]: the concentration for half-maximal inhibition (IC50) was in the range of 1 to 10 nM.

Compound `CC(=O)N(Cc1ccc2ccccc2c1)c1ccccc1C#Cc1ccc(C(=O)O)nc1` [Compound 116, 5-[2-(2-{N-[(naphthalen-2-yl)methyl]acetamido}phenyl)ethynyl]-pyridine-2-carboxylic acid] registered a concentration for half-maximal inhibition (IC50) of 100 to 1000 nM.

As to `COc1ccc(S(=O)(=O)Nc2ccccc2C#Cc2cnc(C(=O)O)c(C)c2)c2ccccc12` [Compound 63, 5-{2-[2-(4-methoxynaphthalene-1-sulfonamido)phenyl]ethynyl}-3-methylpyridine-2-carboxylic acid], the IC50 was 100 to 1000 nM.

`COc1ccc(S(=O)(=O)Nc2ccccc2C#Cc2cnc(C(=O)O)cc2C)c2ncccc12` [Compound 110, 5-{2-[2-(5-methoxyquinoline-8-sulfonamido)phenyl]ethynyl}-4-methylpyridine-2-carboxylic acid] gave an IC50 of 10 to 100 nM.

In turn, `CCc1ccc2cccnc2c1S(=O)(=O)Nc1ccccc1C#Cc1ccc(C(=O)O)nc1` [Compound 342, 5-{2-[2-(7-ethylquinoline-8-sulfonamido)phenyl]ethynyl}pyridine-2-carboxylic acid] registered an IC50 of 1 to 10 nM.

Regarding `COC(=O)c1cc(C)c(C#Cc2cc(F)ccc2NS(=O)(=O)c2c(C)ccc3cccnc23)cn1` [Compound 146, methyl 5-{2-[5-fluoro-2-(7-methylquinoline-8-sulfonamido)phenyl]ethynyl}-4-methylpyridine-2-carboxylate], the IC50 lay in the range of 10 to 100 nM.

With `COCCOC(=O)c1cc(OC)c(C#Cc2ccccc2NS(=O)(=O)c2ccc(OC)c3cccnc23)cn1` [Compound 405, 2-methoxyethyl 4-methoxy-5-{2-[2-(5-methoxyquinoline-8-sulfonamido)phenyl]ethynyl}pyridine-2-carboxylate], the IC50 was 100 to 1000 nM.
